Results from patent US10167296B2, “Sulfoximine substituted quinazolines for pharmaceutical compositions” (EVOTEC INTERNATIONAL GMBH, priority 2014, dated 2019).

Tests used:
[1] = biological target: MNK2a (pre-activated GST-MNK2a) (Homo sapiens (Human), UniProt Q9HBH9); test: MNK2a in vitro kinase assay (assay 1), ADP-Glo; format: biochemical; conditions: read-out: Mnk2 IC50
Description: A. MNK2a In Vitro Kinase Assay (Assay 1)
The inhibition of kinase activity of MNK2a was assessed using pre-activated GST-MNK2a. The white, 384-well OptiPlate F plates were purchased from PerkinElmer. The ADP-Glo Kinase Assay (including ultra pure ATP) was purchased from Promega (V9103). Activated MNK2a was obtained as described in WO2011/104340. […] ID No. 5 of WO 2011/104340 by the C-terminal —CONH2 group, was purchased from Thermo Fisher Scientific. All other materials were of highest grade commercially available. Compounds are tested in either serial dilutions or single dose concentrations. The compound stock solutions are 10 mM in 100% DMSO The serial compound dilutions are prepared in 100% DMSO followed by 1:27.3 intermediate dilution in assay buffer. The final DMSO concentration in assay will be <3%.
In the 384-well plates 3 μl of test compound from the intermediate dilution is mixed with 4 μl of the activated MNK2 enzyme (final concentration of 10 nM) and 4 μl of the peptide (final concentration of 25 μM)/ultra pure ATP (final concentration of 20 μM), all dissolved in assay buffer. This step is followed by an incubation time of 90 min, then 10 μl of ADP Glo reagent are added, followed by 40 min of incubation. Then 20 μl of kinase detection reagent are admixed. The plates are sealed and after an incubation period of 30 min, the luminescence signal is measured in an Envision reader to determine the amount of produced ADP. All incubation steps are performed at room temperature.
The assay buffer consists of 20 mM HEPES, 2 mM DTT, 0.01% BSA, 20 mM MgCl2 and 0.1% Pluronic F-127.
The luminescent signal generated is proportional to the ADP concentration produced and is correlated with activated MNK2 activity. The analysis of the data is performed by the calculation of the percentage of ATP consumption of activated MNK2 in the presence of the test compound compared to the consumption of ATP in the presence of activated MNK2 without compound. (RLU(sample)−RLU(low control))*100/(RLU(high value)−RLU(low control))
[RLU=Relative Luminescence Units]
Values of more than 100% CTL are normally related to compound/sample specific physico-chemical properties (e.g. solubility, light absorbance, fluorescence).
IC50 values based on dose response curves are calculated with the AssayExplorer software.

[2] = biological target: MNK1a (pre-activated GST-MNK1a) (Homo sapiens (Human), UniProt Q9BUB5); test: MNK1 in vitro kinase assay (assay 2), Z'-LYTE; format: biochemical; conditions: for inhibition at 1 µM: compound concentration of 1 μM, read-out: Mnk1 % Inh
Source text: B. MNK1 In Vitro Kinase Assay (Assay 2)
MNK1 Data can be obtained from the MNK1 Z′-LYTE® assay. The MNK1 Z′-LYTE® screening protocol and assay conditions are also described on www.invitrogen.com.
The assay is described as follows:
The Z′-LYTE® biochemical assay employs a fluorescence-based, coupled-enzyme format and is based on the differential sensitivity of phosphorylated and non-phosphorylated peptides to proteolytic cleavage. The peptide substrate is labeled with two fluorophores—one at each end—that make up a FRET pair.
In the primary reaction, the kinase transfers the gamma-phosphate of ATP to a single tyrosine, serine or threonine residue in a synthetic FRET-peptide. In the secondary reaction, a site-specific protease recognizes and cleaves non-phosphorylated FRET-peptides. Phosphorylation of FRET-peptides suppresses cleavage by the Development Reagent. Cleavage disrupts FRET between the donor (i.e., coumarin) and acceptor (i.e., fluorescein) fluorophores on the FRET-peptide, whereas uncleaved, phosphorylated FRET-peptides maintain FRET. A ratiometric method, which calculates the ratio (the Emission Ratio) of donor emission to acceptor emission after excitation of the donor fluorophore at 400 nm, is used to quantitate reaction progress, as shown in the equation below. Emission Ratio=Coumarin Emission(445 nm)/Fluorescein Emission(520 nm)
The inhibition of kinase activity of MNK1a was assessed using pre-activated GST-MNK1a. The 2×MKNK1 (MNK1) mixture is prepared in 50 mM HEPES pH 7.5, 0.01% BRIJ-35, 10 mM MgCl2, 4 mM MnCl2, 1 mM EGTA, 2 mM DTT. The final 10 μL Kinase Reaction consists of 13.5-54 ng MKNK1 (MNK1) and 2 μM Ser/Thr 07 in 50 mM HEPES pH 7.5, 0.01% BRIJ-35, 10 mM MgCl2, 2 mM MnCl2, 1 mM EGTA, 1 mM DTT. After the 1 hour Kinase Reaction incubation, 5 μL of a 1:32768 dilution of Development Reagent A is added.
The Test Compounds are screened in 1% DMSO (final) in the well.
All Peptide/Kinase Mixtures are diluted to a 2×working concentration in the MNK1 Kinase Buffer.
All ATP Solutions are diluted to a 4×working concentration in Kinase Buffer (50 mM HEPES pH 7.5, 0.01% BRIJ-35, 10 mM MgCl2, 1 mM EGTA).
Development Reagent Solution:
The Development Reagent is diluted in Development Buffer
Bar-coded Corning, low volume NBS, 384-well plate (Corning Cat. #3676)
1. 2.5 μL—4×Test Compound
2. 5 μL—2×Peptide/Kinase Mixture
5. 60-minute Kinase Reaction incubation at room temperature
6. 5 μL—Development Reagent Solution
8. 60-minute Development Reaction incubation at room temperature
9. Read on fluorescence plate reader and analyze the data
The following equations are used for each set of data points:
Correction for Background Fluorescence: FISample−FITCFI Ctl Emission Ratio (using values corrected for background fluorescence):Coumarin Emission (445 nm)/Fluorescein Emission (520 nm)
% Phosphorylation (% Phos): 1−((Emission Ratio×F100%)−C100%)/((C0%−C100%)+[Emission Ratio×(F100%−F0%)])*100
% Inhibition: 1−(% PhosSample/% Phos0% Inhibition Ctl)*100 FI=Fluorescence Intensity C100%=Average Coumarin emission signal of the 100% Phos. Control C0%=Average Coumarin emission signal of the 0% Phos. Control F100%=Average Fluorescein emission signal of the 100% Phos. Control F0%=Average Fluorescein emission signal of the 0% Phos. Control
SelectScreen® Kinase Profiling Service uses XLfit from IDBS. The dose response curve is curve fit to model number 205 (sigmoidal dose-response model).

MNK2a (pre-activated GST-MNK2a), sequence (Q9HBH9 whole entry): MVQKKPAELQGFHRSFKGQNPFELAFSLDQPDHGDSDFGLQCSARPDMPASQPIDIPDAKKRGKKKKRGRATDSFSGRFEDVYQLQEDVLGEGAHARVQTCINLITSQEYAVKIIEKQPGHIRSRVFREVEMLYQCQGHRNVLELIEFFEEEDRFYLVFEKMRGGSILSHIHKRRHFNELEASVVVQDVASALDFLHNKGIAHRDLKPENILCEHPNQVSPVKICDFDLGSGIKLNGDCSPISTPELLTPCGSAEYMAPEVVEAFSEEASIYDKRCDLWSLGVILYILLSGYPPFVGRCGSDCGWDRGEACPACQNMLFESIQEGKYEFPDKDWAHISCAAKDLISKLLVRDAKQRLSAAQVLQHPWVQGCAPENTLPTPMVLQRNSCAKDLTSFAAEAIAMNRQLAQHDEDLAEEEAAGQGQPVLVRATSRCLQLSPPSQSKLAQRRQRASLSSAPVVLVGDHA
MNK1a (pre-activated GST-MNK1a), sequence (Q9BUB5 other isoform, or with tags, fused parts or gaps): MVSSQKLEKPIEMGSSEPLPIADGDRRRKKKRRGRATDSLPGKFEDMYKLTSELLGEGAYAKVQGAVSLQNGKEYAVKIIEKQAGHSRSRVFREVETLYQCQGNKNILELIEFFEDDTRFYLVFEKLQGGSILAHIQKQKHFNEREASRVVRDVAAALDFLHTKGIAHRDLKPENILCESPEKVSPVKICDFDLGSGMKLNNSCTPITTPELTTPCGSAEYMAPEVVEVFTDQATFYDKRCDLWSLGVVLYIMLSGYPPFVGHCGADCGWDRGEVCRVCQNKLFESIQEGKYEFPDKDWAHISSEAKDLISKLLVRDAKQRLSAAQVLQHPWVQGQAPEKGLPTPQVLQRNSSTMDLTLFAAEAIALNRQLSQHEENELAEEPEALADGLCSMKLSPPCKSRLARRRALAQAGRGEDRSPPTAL

## COc1c(N=S2(=O)CCC2)cc2ncnc(Nc3ccc(F)cc3O[C@H](C)C(F)(F)F)c2c1C [Example 2.35]
[1]
  IC50: 1.5 nM
[2]
  IC50: 74 nM

## COc1c(N=S(C)(=O)C(C)C)cc2ncnc(Nc3ccc(F)cc3O[C@@H]3CO[C@@H]4CCO[C@@H]43)c2c1C (some centres unmarked) [Example 2.31]
[1]
  IC50: 2.1 nM
[2]
  inhibition at 1 µM: 96%

## COc1c(N=S2(=O)CCC2)cc2ncnc(Nc3ccc(F)cc3O[C@H]3COC[C@@H]3O)c2c1C [Example 2.07]
[1]
  IC50: 2.7 nM

## COc1c(N=S2(=O)CCC2)cc2ncnc(Nc3ccc(F)cc3O[C@@H]3CO[C@@H]4CCO[C@@H]43)c2c1C [Example 2.42]
[1]
  IC50: 1.2 nM
[2]
  IC50: 52 nM

## COCCOc1c(N=S(C)(C)=O)cc2ncnc(Nc3ccc(F)cc3O[C@H](C)C(F)(F)F)c2c1C [Example 3.02]
[1]
  IC50: 2.6 nM
[2]
  IC50: 113 nM

## COc1c(N=S2(=O)CCCC2)cc2ncnc(Nc3ccc(F)cc3O[C@@H]3CO[C@@H]4CCO[C@@H]43)c2c1C [Example 2.03]
[1]
  IC50: 1.2 nM
[2]
  inhibition at 1 µM: 105%

## COc1c(N=S(C)(C)=O)cc2ncnc(Nc3ccc(F)cc3O[C@H](C)C(=O)NCC(F)(F)F)c2c1Cl [Example 2.47]
[1]
  IC50: 1.4 nM
[2]
  IC50: 28 nM

## COc1c(N=S2(=O)CCCC2)cc2ncnc(Nc3ccc(F)cc3O[C@@H]3CO[C@@H]4CCO[C@@H]43)c2c1Cl [Example 2.33]
[1]
  IC50: 1.6 nM
[2]
  inhibition at 1 µM: 106%

## Cc1c(OC(C)C)c(N=S(C)(C)=O)cc2ncnc(Nc3ccc(F)cc3O[C@H](C)C(F)(F)F)c12 [Example 3.03]
[1]
  IC50: 6.5 nM
[2]
  IC50: 282 nM

## COc1c(N=S2(=O)CCC2)cc2ncnc(Nc3ccc(F)cc3O[C@@H]3CO[C@H]4[C@@H]3OC[C@@H]4F)c2c1C [Example 2.26]
[1]
  IC50: 1 nM
[2]
  IC50: 64 nM

## Cc1c(OCCN2CCN(C)C(=O)C2)c(N=S(C)(C)=O)cc2ncnc(Nc3ccc(F)cc3O[C@H](C)C(F)(F)F)c12 [Example 2.32]
[1]
  IC50: 4.1 nM
[2]
  IC50: 65 nM

## COc1c(N=S(C)(C)=O)cc2ncnc(Nc3ccc(F)cc3O[C@@H]3CO[C@H]4[C@@H]3OC[C@H]4O)c2c1C [Example 2.13]
[1]
  IC50: 1.7 nM
[2]
  inhibition at 1 µM: 103%

## COc1c(N=S2(=O)CCC2)cc2ncnc(Nc3ccc(F)cc3O[C@@H]3CO[C@@H]4CCO[C@@H]43)c2c1Cl [Example 2.59]
[1]
  IC50: 1.4 nM
[2]
  inhibition at 1 µM: 108%

## Cc1c(OCCCN2CCCC2)c(N=S(C)(C)=O)cc2ncnc(Nc3ccc(F)cc3O[C@H](C)C(F)(F)F)c12 [Example 1.02]
[1]
  IC50: 2.4 nM
[2]
  IC50: 51 nM

## Cc1c(OCC2CC2)c(N=S(C)(C)=O)cc2ncnc(Nc3ccc(F)cc3O[C@H](C)C(F)(F)F)c12 [Example 3.01]
[1]
  IC50: 3.3 nM
[2]
  IC50: 180 nM

## COc1c(N=S(C)(C)=O)cc2ncnc(Nc3ccc(F)cc3O[C@H]3CCOC3)c2c1C [Example 2.50]
[1]
  IC50: 2 nM
[2]
  IC50: 44 nM

## COc1c(N=S2(=O)CCC2)cc2ncnc(Nc3ccc(F)cc3O[C@@H]3CO[C@H]4[C@@H]3OC[C@H]4OC)c2c1C [Example 2.41]
[1]
  IC50: 1.6 nM
[2]
  inhibition at 1 µM: 106%

## Cc1c(OCCN2CCOCC2)c(N=S(C)(C)=O)cc2ncnc(Nc3ccc(F)cc3O[C@H](C)C(F)(F)F)c12 [Example 1.04]
[1]
  IC50: 2.4 nM

## COc1c(N=S(C)(=O)C(C)(C)C)cc2ncnc(Nc3ccc(F)cc3O[C@@H]3CO[C@@H]4CCO[C@@H]43)c2c1C (some centres unmarked) [Example 2.19]
[1]
  IC50: 2.8 nM
[2]
  inhibition at 1 µM: 102%

## COc1c(N=S2(=O)CCCC2)cc2ncnc(Nc3ccc(F)cc3O[C@@H]3CO[C@H]4[C@@H]3OC[C@H]4O)c2c1C [Example 2.09]
[1]
  IC50: 1.8 nM
[2]
  IC50: 14 nM

## COc1c(N=S2(=O)CCOCC2)cc2ncnc(Nc3ccc(F)cc3O[C@@H]3CO[C@@H]4CCO[C@@H]43)c2c1C [Example 2.17]
[1]
  IC50: 2.1 nM
[2]
  inhibition at 1 µM: 94%

## Cc1c(OCCCN2CCN(C)C(=O)C2)c(N=S(C)(C)=O)cc2ncnc(Nc3ccc(F)cc3O[C@H](C)C(F)(F)F)c12 [Example 1.01]
[1]
  IC50: 5.5 nM
[2]
  IC50: 162 nM

## COc1c(N=S(C)(C)=O)cc2ncnc(Nc3ccc(F)cc3O[C@@H]3CO[C@H]4[C@@H]3OC[C@@H]4F)c2c1C [Example 2.02]
[1]
  IC50: 12.6 nM
[2]
  IC50: 25 nM

## COc1c(N=S(C)(=O)CCO)cc2ncnc(Nc3ccc(F)cc3O[C@@H]3CO[C@@H]4CCO[C@@H]43)c2c1C (some centres unmarked) [Example 2.23]
[1]
  IC50: 2 nM
[2]
  inhibition at 1 µM: 105%

## COc1c(N=S2(=O)CCCC2)cc2ncnc(Nc3ccc(F)cc3O[C@@H]3CO[C@H]4[C@@H]3OC[C@H]4OC)c2c1Cl [Example 2.55]
[1]
  IC50: 1.6 nM
[2]
  inhibition at 1 µM: 104%

## CCOc1c(N=S(C)(C)=O)cc2ncnc(Nc3ccc(F)cc3O[C@H](C)C(F)(F)F)c2c1C [Example 1.03]
[1]
  IC50: 1.6 nM
[2]
  IC50: 54 nM

## COc1c(N=S2(=O)CCCC2)cc2ncnc(Nc3ccc(F)cc3O[C@H]3CC[C@H](O)CC3)c2c1C [Example 2.44]
[1]
  IC50: 1.4 nM
[2]
  IC50: 41 nM

## COc1c(N=S2(=O)CCC2)cc2ncnc(Nc3ccc(F)cc3O[C@H]3CC[C@H](O)CC3)c2c1C [Example 2.58]
[1]
  IC50: 2.4 nM
[2]
  IC50: 38 nM

## COc1c(N=S(C)(=O)C2CCOCC2)cc2ncnc(Nc3ccc(F)cc3O[C@@H]3CO[C@@H]4CCO[C@@H]43)c2c1C (some centres unmarked) [Example 2.12]
[1]
  IC50: 2.3 nM
[2]
  inhibition at 1 µM: 95%

## Cc1c(O)c(N=S(C)(C)=O)cc2ncnc(Nc3ccc(F)cc3O[C@H](C)C(F)(F)F)c12 [Example 2.51]
[1]
  IC50: 6.9 nM
[2]
  inhibition at 1 µM: 77%

## COc1c(N=S(C)(C)=O)cc2ncnc(Nc3ccc(F)cc3O[C@@H]3CO[C@H]4[C@@H]3OC[C@H]4OC)c2c1Cl [Example 2.28]
[1]
  IC50: 2.2 nM
